# Source: ChEMBL document CHEMBL5360558, “Molecular design, synthesis and anticancer activity of new thiopyrano[2,3-d]thiazoles based on 5-hydroxy-1,4-naphthoquinone (juglone)” (Eur J Med Chem, 2023)
# Calls of active or inactive are those of the source. The rule behind the calls is not given here.
# Tests used:
# SF-268 = assay: Growth inhibition of human SF-268 cells incubated for 48 hrs by sulforhodamine B spectrophotometric assay; type: functional
# SK-OV-3 = assay: Growth inhibition against human SK-OV-3 cells assessed as total growth inhibitory concentration incubated for 48 hrs by sulforhodamine B spectrophotometric assay; type: functional
# SN12C = assay: Growth inhibition of human SN12C cells incubated for 48 hrs by sulforhodamine B spectrophotometric assay; type: functional
# HT-29 = assay: Growth inhibition against human HT-29 cells assessed as lethal concentration incubated for 48 hrs by sulforhodamine B spectrophotometric assay; type: functional; details: read-out: LC50 (the source's name)
# OVCAR-3 [1] = assay: Growth inhibition of human OVCAR-3 cells incubated for 48 hrs by sulforhodamine B spectrophotometric assay; type: functional
# UACC-257 = assay: Growth inhibition against human UACC-257 cells assessed as total growth inhibitory concentration incubated for 48 hrs by sulforhodamine B spectrophotometric assay; type: functional
# EKVX = assay: Growth inhibition of human EKVX cells incubated for 48 hrs by sulforhodamine B spectrophotometric assay; type: functional
# NCI-H522 = assay: Growth inhibition against human NCI-H522 cells assessed as lethal concentration incubated for 48 hrs by sulforhodamine B spectrophotometric assay; type: functional; details: read-out: LC50 (the source's name)
# DU-145 [2] = assay: Growth inhibition against human DU-145 cells assessed as total growth inhibitory concentration incubated for 48 hrs by sulforhodamine B spectrophotometric assay; type: functional
# CCRF-CEM [3] = assay: Induction of cell cycle arrest in human CCRF-CEM cells assessed as accumulation of cells at G0/G1 phase at 4.14 uM incubated for 24 hrs by propidium iodide staining based flow cytometry analysis (reference value: 38.68 +/- 0.75%); type: functional
# NCI/ADR-RES [4] = assay: Growth inhibition against human NCI/ADR-RES cells assessed as lethal concentration incubated for 48 hrs by sulforhodamine B spectrophotometric assay; type: functional; details: read-out: LC50 (the source's name)
# CCRF-CEM [5] = assay: Induction of cell cycle arrest in human CCRF-CEM cells assessed as accumulation of cells at M phase at 20.7 uM incubated for 24 hrs by propidium iodide staining based flow cytometry analysis (reference value: 1.97 +/- 0.042%); type: functional
# OVCAR-3 [6] = assay: Growth inhibition against human OVCAR-3 cells assessed as total growth inhibitory concentration incubated for 48 hrs by sulforhodamine B spectrophotometric assay; type: functional
# MDA-MB-468 = assay: Growth inhibition against human MDA-MB-468 cells assessed as total growth inhibitory concentration incubated for 48 hrs by sulforhodamine B spectrophotometric assay; type: functional
# HCC 2998 = assay: Growth inhibition against human HCC 2998 cells assessed as total growth inhibitory concentration incubated for 48 hrs by sulforhodamine B spectrophotometric assay; type: functional
# CCRF-CEM [7] = assay: Induction of cell cycle arrest in human CCRF-CEM cells assessed as accumulation of cells at G2/M phase at 20.7 uM incubated for 24 hrs by propidium iodide staining based flow cytometry analysis (reference value: 20.24 +/- 0.25%); type: functional
# NCI-H226 = assay: Growth inhibition against human NCI-H226 cells assessed as lethal concentration incubated for 48 hrs by sulforhodamine B spectrophotometric assay; type: functional; details: read-out: LC50 (the source's name)
# SR [8] = assay: Growth inhibition of human SR cells incubated for 48 hrs by sulforhodamine B spectrophotometric assay; type: functional
# HOP-92 = assay: Growth inhibition of human HOP-92 cells incubated for 48 hrs by sulforhodamine B spectrophotometric assay; type: functional
# SR [9] = assay: Growth inhibition against human SR cells assessed as total growth inhibitory concentration incubated for 48 hrs by sulforhodamine B spectrophotometric assay; type: functional
# OVCAR-8 = assay: Growth inhibition of human OVCAR-8 cells incubated for 48 hrs by sulforhodamine B spectrophotometric assay; type: functional
# UACC-62 = assay: Growth inhibition of human UACC-62 cells incubated for 48 hrs by sulforhodamine B spectrophotometric assay; type: functional
# [10] = Acute toxicity in C57BL/6 mouse assessed as ratio of kidney weight to body weight at 20 mg/kg,ip administration and observed after 22 days (reference value: 1.39 +/- 0.09); type: organism-based; details: in vivo, 528 h, time 22 day
# BT-549 = assay: Growth inhibition against human BT-549 cells assessed as lethal concentration incubated for 48 hrs by sulforhodamine B spectrophotometric assay; type: functional; details: read-out: LC50 (the source's name)
# [11] = Acute toxicity in C57BL/6 mouse assessed as neutrophil count at 20 mg/kg,ip administration and observed after 22 days; type: organism-based; details: in vivo, 528 h, time 22 day
# SNB-19 = assay: Growth inhibition against human SNB-19 cells assessed as total growth inhibitory concentration incubated for 48 hrs by sulforhodamine B spectrophotometric assay; type: functional
# CCRF-CEM [12] = assay: Induction of cell cycle arrest in human CCRF-CEM cells assessed as DNA synthesis at 4.14 uM incubated for 2.5 hrs by BrdU incorporation based flow cytometry analysis (reference value: 42.4 +/- 0.66%); type: functional
# NCI/ADR-RES [13] = assay: Growth inhibition of human NCI/ADR-RES cells incubated for 48 hrs by sulforhodamine B spectrophotometric assay; type: functional
# MDA-MB-435 = assay: Growth inhibition of human MDA-MB-435 cells incubated for 48 hrs by sulforhodamine B spectrophotometric assay; type: functional
# [14] = Antileukemic activity against human CLL cell assessed as cell growth inhibition incubated for 72 hrs during remission period by MTT assay; type: functional, cell-based
# CCRF-CEM [15] = assay: Induction of cell cycle arrest in human CCRF-CEM cells assessed as RNA synthesis at 4.14 uM incubated for 3 hrs by […] incorporation based flow cytometry analysis (reference value: 31.8 +/- 1.17%); type: functional
# OVCAR-4 = assay: Growth inhibition against human OVCAR-4 cells assessed as lethal concentration incubated for 48 hrs by sulforhodamine B spectrophotometric assay; type: functional; details: read-out: LC50 (the source's name)
# CCRF-CEM [16] = assay: Induction of cell cycle arrest in human CCRF-CEM cells assessed as accumulation of cells at S phase at 4.14 uM incubated for 24 hrs by propidium iodide staining based flow cytometry analysis (reference value: 41.09 +/- 0.5%); type: functional
# KB 3-1 = assay: Induction of apoptosis in human KB 3-1 cells assessed as increase in […] protein expression at 0.5 to 5 uM incubated for 3 hrs by Western blotting assay; type: functional, cell-based; details: dose 0.5-5 µM
# SNB-75 = assay: Growth inhibition of human SNB-75 cells incubated for 48 hrs by sulforhodamine B spectrophotometric assay; type: functional
# CCRF-CEM [17] = assay: Induction of cell cycle arrest in human CCRF-CEM cells assessed as accumulation of cells at higher G2/M phase at 20.7 uM incubated for 24 hrs by propidium iodide staining based flow cytometry analysis (reference value: 10.09 +/- 0.14%); type: functional
# DU-145 [18] = assay: Growth inhibition of human DU-145 cells incubated for 48 hrs by sulforhodamine B spectrophotometric assay; type: functional
# [19] = Cytotoxicity against mouse J774.2 cells assessed as cell growth inhibition incubated for 72 hrs by MTT assay; type: toxicity, cell-based
# [20] = Acute toxicity in C57BL/6 mouse assessed as change in hemoglobin level at 20 mg/kg,ip administration observed after 22 days; type: organism-based; details: in vivo, 528 h, time 22 day
# CCRF-CEM [21] = assay: Induction of cell cycle arrest in human CCRF-CEM cells assessed as accumulation of cells at G0/G1 phase at 20.7 uM incubated for 24 hrs by propidium iodide staining based flow cytometry analysis (reference value: 38.68 +/- 0.75%); type: functional
structure (smiles),measurement,setting,value
O=C1C2=C(C(=O)c3c(O)cccc31)C(c1ccco1)c1sc(=O)[nH]c1S2 (stereo not given),GI50,SF-268,3.48 µM
same,TGI,SK-OV-3,29.6 µM
same,GI50,SN12C,1.74 µM
same,CC50,HT-29,> 100 µM
same,GI50,OVCAR-3 [1],2.86 µM
same,TGI,UACC-257,3.26 µM
same,GI50,EKVX,6.75 µM
same,CC50,NCI-H522,26.4 µM
same,TGI,DU-145 [2],3.01 µM
same,Activity,CCRF-CEM [3],34.34%
same,CC50,NCI/ADR-RES [4],> 100 µM
same,Activity,CCRF-CEM [5],1.7%
same,TGI,OVCAR-3 [6],14 µM
same,TGI,MDA-MB-468,6.59 µM
same,TGI,HCC 2998,5.51 µM
same,Activity,CCRF-CEM [7],22.09%
same,CC50,NCI-H226,27.3 µM
same,GI50,SR [8],3.05 µM
same,GI50,HOP-92,3.15 µM
same,TGI,SR [9],69.5 µM
same,GI50,OVCAR-8,2.46 µM
same,GI50,UACC-62,1.76 µM
same,Ratio,[10],1.28
same,CC50,BT-549,6.22 µM
same,Activity,[11],31.21%
same,TGI,SNB-19,7.33 µM
same,Activity,CCRF-CEM [12],19.29%
same,GI50,NCI/ADR-RES [13],3.02 µM
same,GI50,MDA-MB-435,1.16 µM
same,IC50,[14],28.2 µM
same,Activity,CCRF-CEM [15],23.46%
same,CC50,OVCAR-4,8.71 µM
same,Activity,CCRF-CEM [16],41.83%
same,Activity,KB 3-1,inactive
same,GI50,SNB-75,3.17 µM
same,Activity,CCRF-CEM [17],20.54%
same,GI50,DU-145 [18],1.55 µM
same,IC50 at 72 h,[19],2.59 µM
same,Activity,[20],Non-Toxic
same,Activity,CCRF-CEM [21],35.58%
